What all share (type): cell-based, human
For experiment [1], the system named is c-Myc mRNA. Briefly: c-Myc mRNA level and transcription sites in A549 cells (imaging). From the text: (§1) A549 cells were exposed to vehicle, general transcription inhibitor actinomycin D or anti-c-Myc compound. […] Cell nuclei stained with DAPI, c-Myc protein, c-Myc mRNA and transcription sites are signed on the images.
A further experiment deals with c-Myc. Briefly: c-Myc immunofluorescence assay. Particulars: A549 cells, 24 hours; for Myc Efficacy (−LogEC50): anti-c-Myc immunofluorescence. An outline of the steps:
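Read-out is imaged c-Myc immunofluorescence, nucleus-segmented, in A549 lung carcinoma cells exposed to compound dose series for 24 h after 48 h growth. Fixation 4% paraformaldehyde, Triton permeabilization, antibody staining at room temperature; EC50 from logistic fit of signal versus concentration.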

The next experiment relates to c-Myc protein. Briefly: c-Myc protein level in A549 cells (imaging).
Description: as §1

Experiment [2] has as its system c-Myc mRNA. Briefly: Fluorescent in situ hybridization (FISH) assay. The conditions noted are these: A549 cells, 4 hours, FIG. 3 lower panel. On the procedure:
A549 cells were incubated with compounds for 24 hours (FIG. 3, upper panel) and c-Myc protein detected by immunofluorescence. In parallel, A549 cells were incubated with compounds for 4 hours and c-Myc mRNA was visualized by microscopy using c-Myc mRNA specific fluorescent-tagged probes (FIG. 3, lower panel).
A549 cells were grown in 384-wells plates (Perkin Elmer, Cat. 6057300) for 48 hours, treated with compounds for 4 hours and then fixed for 20 min in 4% paraformaldehyde. Next day, permeabilization was done for 90 min at 4° C., using 70% ethanol. Then, the cells were incubated for 10 min with 10% formamide in 10% saline-sodium citrate. Fluorescently labeled customer DNA probes that target c-Myc (Cy3, BioSearch Technologies, Cat. SMF-1063-5) and GAPDH (Cy5, BioSearch Technologies, Cat. SMF-2019-1) mRNAs were hybridized overnight at 37° C. in a dark chamber in 10% formamide. The next day, cells were washed twice with 10% formamide for 30 min. […]
Following RNA FISH experiments, images of cells were taken with Operetta (Perkin Elmer, USA), a wide-field fluorescence microscope at ×63 magnification. […] In Columbus, cells were identified by their nucleus, using the “Find Nuceli” module, cytoplasm was detected based on the FISH-channel, and single mRNAs in the cytoplasm and transcription sites in the nucleus were detected using “Find Spots” module. […]

The subject of experiment [3] is global translation in A549 cells. Briefly: Metabolic labeling assay (global translation). Particulars: 4 hour pulse, FIG. 2. On the procedure:
A549 cells were incubated with active compounds and metabolically labelled with fluorescent methionine for a 4 hour pulse (click-chemistry modified methionine). Cells were fixed and newly synthesized proteins detected by using click-chemistry with a fluorescent detector (FIG. 2).
A549 cells were seeded at 3,200 cells per well in complete culture medium. Plates were incubated at 37° C., 5% CO2 overnight. After 48 hours of incubation, the growth medium was aspirated, and cells were washed three times with HBSS. Metabolic labeling medium DMEM (-Cys -Met), containing 10% dialyzed FBS, 1% penicillin-streptomycin and 1% L-glutamine was added to the cells for 30 min. Then medium was replaced by metabolic labeling medium containing 25 μM L-Azidohomoalanine (AHA, ThermoFisher) and tested compounds at a final concentration of 30 μM, and cells were incubated for 4 hours at 37° C., 5% CO2. Cells were washed by HBSS at 37° C. for 15 min before fixing with 4% paraformaldehyde. Cells were washed twice with 3% BSA in PBS before permeabilization with 0.5% Triton X-100 in PBS for 20 min. The AHA staining with Alexa Fluor™ 555 alkyne was performed according to the manufacturer protocol. Images were captured with Operetta microscope (Perkin Elmer) using ×20 high NA objective lens.

For another experiment, the system named is global protein synthesis. Briefly: AHA metabolic labeling in A549 cells. From the text: FIG. 2 depicts selective regulation of c-Myc translation. […] Cell nuclei stained with DAPI and AHA metabolic labeling are signed on the images.

Starred links: 1 amine or outer side, 2 acyl side, 3 side chain; linkers in the order of their positions; H or OH if unused. Positions of bridges follow the written chain, without caps; N, C: chain ends. Non-standard residues stand in square brackets, D forms with d. Residues, ends and D or L forms follow the SMILES beside them. Chains are numbered I, II in the order given. Actinocin(9to1) = Cc1c2oc3c(C)ccc(C(=O)[*:1])c3nc-2c(C(=O)[*:2])c(N)c1=O; NMeV = CN[C@H](C(=O)O)C(C)C; Sar = CNCC(=O)O

Regarding `Cc1c2oc3c(C)ccc(C(=O)N[C@@H]4C(=O)N[C@H](C(C)C)C(=O)N5CCC[C@H]5C(=O)N(C)CC(=O)N(C)[C@@H](C(C)C)C(=O)O[C@@H]4C)c3nc-2c(C(=O)N[C@@H]2C(=O)N[C@H](C(C)C)C(=O)N3CCC[C@H]3C(=O)N(C)CC(=O)N(C)[C@@H](C(C)C)C(=O)O[C@@H]2C)c(N)c1=O` [actinomycin D] (I: T[dV]P[Sar][NMeV] / II: T[dV]P[Sar][NMeV]; ester I:1-I:C, II:1-II:C; linker I:N-II:N via Actinocin(9to1)), in the experiment on c-Myc mRNA [1], the “c-Myc mRNA level as well as transcription sites” value was “complete reduction”. Besides, in the experiment with c-Myc (FIG. 3 upper panel), the “c-Myc protein by immunofluorescence” value was “reduced c-Myc protein”. Besides, in the experiment on c-Myc protein, the c-Myc protein level result is “significant decrease”. In the experiment on c-Myc mRNA [2], the “c-Myc mRNA in the cytoplasm” value is on record as “inhibited” and the “c-Myc transcription site (spots inside the nucleus)” value is listed as “inhibited transcription site”.

Take `C[C@@H]1C[C@@H]([C@H](O)CC2CC(=O)NC(=O)C2)C(=O)[C@@H](C)C1` [cycloheximide]: in experiment [3], the “incorporation of modified methionine (global translation)” value is on record as “completely reduced incorporation of modified methionine”. In addition, the “global protein synthesis (AHA metabolic labeling)” value in the experiment on global protein synthesis is recorded as “total inhibition”.

Regarding `CC[C@H](C)NC(=O)C1CCN(c2nc(-c3ccc(OC)cc3)no2)CC1` [Compound 279, (S)-N-(sec-butyl)-1-(3-(4-methoxyphenyl)-1,2,4-oxadiazol-5-yl)piperidine-4-carboxamide], the “Myc Efficacy (−LogEC50)” value with c-Myc was “+ (+ >3 and <5)”.

As to `COc1ccc(-c2noc(N3CCC(C(=O)NCC(C)(O)c4ccccc4)CC3)n2)cc1` (centres unmarked) [Compound 260, N-(2-hydroxy-2-phenylpropyl)-1-(3-(4-methoxyphenyl)-1,2,4-oxadiazol-5-yl)piperidine-4-carboxamide], the “Myc Efficacy (−LogEC50)” value in the experiment on c-Myc was “+ (+ >3 and <5)”.

For `COc1ccc(-c2noc(N3CCC(C(=O)NC(C)Cc4ccccn4)CC3)n2)cc1` (centres unmarked) [Compound 263, 1-(3-(4-methoxyphenyl)-1,2,4-oxadiazol-5-yl)-N-(1-(pyridin-2-yl)propan-2-yl)piperidine-4-carboxamide], the “Myc Efficacy (−LogEC50)” value in the experiment on c-Myc is given as “− (− ≤3)”.

In the case of `COc1ccc(-c2noc(N3CCC(C(=O)NC4COC5(CCCCC5)C4)CC3)n2)cc1` (centres unmarked) [Compound 290, 1-(3-(4-methoxyphenyl)-1,2,4-oxadiazol-5-yl)-N-(1-oxaspiro[4.5]decan-3-yl)piperidine-4-carboxamide], the “Myc Efficacy (−LogEC50)” value with c-Myc is “+ (+ >3 and <5)”.

With `Cc1ccc(CN2CCC(CNC(=O)C3CCN(c4nc(-c5ccccc5C)no4)CC3)C2)cc1` (centres unmarked) [Compound 188, N-((1-(4-methylbenzyl)pyrrolidin-3-yl)methyl)-1-(3-(o-tolyl)-1,2,4-oxadiazol-5-yl)piperidine-4-carboxamide], in the experiment with c-Myc, the “Myc Efficacy (−LogEC50)” value was “++ (++ ≥5 and <6)”.

Turning to `COc1ccc(-c2noc(N3CCC(C(=O)NCCc4ccccc4)CC3)n2)cc1` [Compound 128, 1-(3-(4-methoxyphenyl)-1,2,4-oxadiazol-5-yl)-N-phenethylpiperidine-4-carboxamide], the “Myc Efficacy (−LogEC50)” value in the experiment on c-Myc was “+ (+ >3 and <5)”.

For `COc1ccc(-c2noc(N3CCC(C(=O)NCC4CCN(CC(C)(C)C)C4)CC3)n2)cc1` (centres unmarked) [Compound 327, 1-(3-(4-methoxyphenyl)-1,2,4-oxadiazol-5-yl)-N-((1-neopentylpyrrolidin-3-yl)methyl)piperidine-4-carboxamide], in the experiment on c-Myc, the “Myc Efficacy (−LogEC50)” value is “+ (+ >3 and <5)”.

`Cc1ccc(CN2CCC(CNC(=O)C3CCN(c4nc(-c5ccc(OC(F)(F)F)cc5)no4)CC3)C2)cc1` (centres unmarked) [Compound 237, N-((1-(4-methylbenzyl)pyrrolidin-3-yl)methyl)-1-(3-(4-(trifluoromethoxy)phenyl)-1,2,4-oxadiazol-5-yl)piperidine-4-carboxamide]: the “Myc Efficacy (−LogEC50)” value in the experiment with c-Myc was “++ (++ ≥5 and <6)”.

Consider `COc1ccc(-c2noc(N3CCC(C(=O)NCCCN4CCC(C)CC4)CC3)n2)cc1` [Compound 140, 1-(3-(4-methoxyphenyl)-1,2,4-oxadiazol-5-yl)-N-(3-(4-methylpiperidin-1-yl)propyl)piperidine-4-carboxamide], for which the “Myc Efficacy (−LogEC50)” value in the experiment with c-Myc was “+ (+ >3 and <5)”.

Take `COc1ccc(-c2noc(C3CN(C(=O)N4CCC(C)CC4)C3)n2)cc1` [Compound 153, (3-(3-(4-methoxyphenyl)-1,2,4-oxadiazol-5-yl)azetidin-1-yl)(4-methylpiperidin-1-yl)methanone]: in the experiment with c-Myc, the “Myc Efficacy (−LogEC50)” value is “+ (+ >3 and <5)”.

In the case of `COc1ccc(-c2noc(N3CCC(C(=O)NC4CCOC5(CCCCC5)C4)CC3)n2)cc1` (centres unmarked) [Compound 289, 1-(3-(4-methoxyphenyl)-1,2,4-oxadiazol-5-yl)-N-(1-oxaspiro[5.5]undecan-4-yl)piperidine-4-carboxamide], the “Myc Efficacy (−LogEC50)” value in the experiment on c-Myc is “+ (+ >3 and <5)”.

Consider `O=C(NCCCN1CCC(Cc2ccccn2)CC1)N1CCN(c2nc(-c3ccc(OC(F)(F)F)cc3)no2)CC1` [Compound 436, N-(3-(4-(pyridin-2-ylmethyl)piperidin-1-yl)propyl)-4-(3-(4-(trifluoromethoxy)phenyl)-1,2,4-oxadiazol-5-yl)piperazine-1-carboxamide], for which the “Myc Efficacy (−LogEC50)” value in the experiment on c-Myc is reported as “+++ (+++ ≥6)”.

Turning to `COc1ccc(-c2noc(N3CCN(C(=O)N4CCC(Oc5ccccc5)CC4)CC3)n2)cc1` [Compound 216, (4-(3-(4-methoxyphenyl)-1,2,4-oxadiazol-5-yl)piperazin-1-yl)(4-phenoxypiperidin-1-yl)methanone], the “Myc Efficacy (−LogEC50)” value in the experiment with c-Myc is “+ (+ >3 and <5)”.

For the compound `COc1ccc(-c2noc(N3CCC(C(=O)NCC4CCN(C[C@H]5CCCCN5C)C4)CC3)n2)cc1` (stereo partly drawn) [Compound 414, 1-(3-(4-methoxyphenyl)-1,2,4-oxadiazol-5-yl)-N-((1-(((R)-1-methylpiperidin-2-yl)methyl)pyrrolidin-3-yl)methyl)piperidine-4-carboxamide], in the experiment on c-Myc, the “Myc Efficacy (−LogEC50)” value was “+ (+ >3 and <5)”.

As for `COc1ccc(-c2noc(N3CCC(C(=O)NCC4CCN(Cc5nc(C)cs5)C4)CC3)n2)cc1` (centres unmarked) [Compound 384, 1-(3-(4-methoxyphenyl)-1,2,4-oxadiazol-5-yl)-N-((1-((4-methylthiazol-2-yl)methyl)pyrrolidin-3-yl)methyl)piperidine-4-carboxamide], the “Myc Efficacy (−LogEC50)” value in the experiment with c-Myc is “++ (++ ≥5 and <6)”.

On to `COc1ccc(-c2noc(N3CCC(C(=O)NCC4CCN(CC5CC(F)(F)C5)C4)CC3)n2)cc1` (centres unmarked) [Compound 393, N-((1-((3,3-difluorocyclobutyl)methyl)pyrrolidin-3-yl)methyl)-1-(3-(4-methoxyphenyl)-1,2,4-oxadiazol-5-yl)piperidine-4-carboxamide], for which the “Myc Efficacy (−LogEC50)” value with c-Myc was “+ (+ >3 and <5)”.

Regarding `COc1ccc(-c2noc(N3CCC(C(=O)NCC4CCN(Cc5ncc(C)s5)C4)CC3)n2)cc1` (centres unmarked) [Compound 407, 1-(3-(4-methoxyphenyl)-1,2,4-oxadiazol-5-yl)-N-((1-((5-methylthiazol-2-yl)methyl)pyrrolidin-3-yl)methyl)piperidine-4-carboxamide], in the experiment with c-Myc, the “Myc Efficacy (−LogEC50)” value was “++ (++ ≥5 and <6)”.

As to `COc1ccc(-c2noc(N3CCC(C(=O)NC[C@@H]4CCCC[C@H]4O)CC3)n2)cc1` [Compound 293, N-(((1S,2R)-2-hydroxycyclohexyl)methyl)-1-(3-(4-methoxyphenyl)-1,2,4-oxadiazol-5-yl)piperidine-4-carboxamide], in the experiment with c-Myc, the “Myc Efficacy (−LogEC50)” value was “+ (+ >3 and <5)”.

Turning to `COc1ccc(-c2noc(N3CCC(C(=O)N[C@@H](CCO)C(C)C)CC3)n2)cc1` [Compound 315, (S)-N-(1-hydroxy-4-methylpentan-3-yl)-1-(3-(4-methoxyphenyl)-1,2,4-oxadiazol-5-yl)piperidine-4-carboxamide], the “Myc Efficacy (−LogEC50)” value in the experiment on c-Myc is “+ (+ >3 and <5)”.

For the origin of these results see patent US12344600B2, “c-Myc mRNA translation modulators and uses thereof in the treatment of cancer” (Anima Biotech Inc., priority 2022, dated 2025).
